In patent publication US3968231A, “4-Aryl-1,2,3,4-tetrahydropyrrolo(3,4-b)indoles for treating schizophrenic manifestations” (Bayer Aktiengesellschaft, priority 1975, dated 1976) one finds ED50 data, which are given here for three compounds.

For the experiment, the system named is amphetamine-induced symptoms. Kind of experiment: antagonism of amphetamine-induced symptoms in rats (block of d-amphetamine cage movement, rating scale). It is filed as in vivo. Conditions: Rattus norvegicus, ip, i.p. test compound, rated one hour after amphetamine. The source says: The tranquilizing agents of the present invention are characterized by relief of such schizophrenic manifestations in humans as hallucinations, hostility, suspiciousness, emotional and social withdrawal, anxiety, agitation and tension. Standard procedures of detecting and comparing tranquilizing activity of compounds in this series and for which there is an excellent correlation with human efficacy is the antagonism of amphetamine-induced symptoms in rats test as taught by A. Weissman, et al., J. Pharmacol. Exp. Ther., 151, 339 (1966) and by Quinton, et al., Nature, 200, 178 (1963).
The effects of the compounds of the present invention on prominent amphetamine-induced symptoms were studied in rats by a rating scale modeled after the one reported by Quinton and Halliwell, and Weissman. Groups of five rats were placed in a covered plastic cage measuring approximately 26 cm. × 42 cm. × 16 cm. After a brief period of acclimation in the cage, the rats in each group were treated intraperitoneally (i.p.) with the test compound. […] On the basis of dose-response data after amphetamine it was possible to determine the effective dose of the compound necessary to antagonize or block the characteristic amphetamine behavior of cage movement for fifty percent of the rats tested (ED50). The time of rating chosen coincides with the peak action of amphetamine which is 60-80 min. after treatment with this agent.
Employing the above-described procedure, the following compounds were tested for their ability to block the behavior effects of amphetamine, the results being reported as the ED50 in mg./kg. at the indicated times: ##SPC25##

The mark [1] stands for this setting: d-amphetamine sulfate 5 mg./kg. i.p. 1 hr. later, read-out: ED50 (dose antagonizing/blocking characteristic amphetamine cage movement in fifty percent of rats), 1 hr.
Setting [2] is: d-amphetamine sulfate 5 mg./kg. i.p. 5 hrs. later, read-out: ED50 (dose antagonizing/blocking characteristic amphetamine cage movement in fifty percent of rats), 5 hrs.

Like-named read-outs stand apart in the source and are kept apart here.

In the case of `Cl.OC(CCCN1Cc2c(n(-c3ccc(F)cc3)c3ccc(F)cc23)C1)c1ccc(F)cc1` (centres unmarked) [F F p-FC6 H4 CH(CH2)3 --, 7-Fluoro-4-(p-fluorophenyl)-2-[4-(p-fluorophenyl)-4-hydroxybutyl]-1,2,3,4-tetrahydropyrrolo[3,4-b]indole hydrochloride], the ED50 reads like this: under setting [1], 1 to 3.2 mg/kg; under setting [2], 1 to 3.2 mg/kg.

With `CN1Cc2c(n(-c3ccc(F)cc3)c3ccc(F)cc23)C1` [F F CH3, 7-Fluoro-4-(p-fluorophenyl)-2-methyl-1,2,3,4-tetrahydropyrrolo[3,4-b]indole], the ED50 was 3.2 to 5.6 mg/kg under setting [1] and over 10 mg/kg under setting [2].

On to `CN(C)CCCN1c2ccccc2Sc2ccc(Cl)cc21` [chlorpromazine, reference compound], for which the ED50 under setting [1] is over 10 mg/kg.
